# Results as given in patent publication US20150299796A1, “PREDICTION OF TREATMENT RESPONSE TO JAK/STAT INHIBITOR” (priority 2012, published 2015).
# How the values were obtained:
# UKE-1 tumor xenograft = UKE-1 tumor xenograft study, modulation of 4-gene signature in tumor; assay type: in vivo, female NOD.SCID mice; settings: single dose P.O. 60 mg/kg; tumor samples at 4 and 24 hours (FIG. 6)
# Procedure: The modulation of gene signature by (R)-3-cyclopentyl-3-[4-(7H-pyrrolo[2,3-d]pyrimidin-4-yl)-1H-pyrazol-1-yl]propanenitrile (ruxolitinib) was further examined in vivo. UKE-1 cells were implanted in female NOD.SCID mice (Harlan) at 1x10e7 cells/mouse. Single dose of (R)-3-cyclopentyl-3-[4-(7H-pyrrolo[2,3-d]pyrimidin-4-yl)-1H-pyrazol-1-yl]propanenitrile was administered P.O. at 60 mg/kg when tumors reached ˜500 mg. Tumor samples were collected at 4 and 24 hours after treatment. The modulation of pSTAT5 in tumor lysate was examined by Western.
# pSTAT5 = assay: Phospho-STAT5 western blot in hematologic tumor cell lines after treatment; assay type: cell-based; settings: 0.2 μM or 1 μM, 4 hr and 24 hr
# Procedure: (§1) […] hematologic tumor cell lines (5 positive for pSTAT5 (AML-193, Hel 92.1.7, Set2, TF-1 and UKE-1) and 4 negative for pSTAT5 (RPM18226, U937, Relt and PL-21) were treated with (R)-3-cyclopentyl-3-[4-(7H-pyrrolo[2,3-d]pyrimidin-4-yl)-1H-pyrazol-1-yl]propanenitrilem, 0.2 μM or 1 μM, and samples were collected at 4 hr and 24 hr after treatment. Phospho-STAT5 was examined by western blot analysis, and the expression of the four signature genes was determined by qPCR. The RNA expression level (ΔCt) of each individual gene in the signature was determined by subtracting the average Ct for the signature gene from the average Ct of the two housekeeper genes (GUSB and TBP). For the normalized relative expression levels the DMSO control treatment ΔCt were set to one and all other treatments the gene Ct values are relative to this value.
# [1] = tested on: four signature genes (PIM1, CISH, SOCS2, ID1); assay: qPCR expression of the four signature genes in hematologic tumor cell lines after treatment; assay type: cell-based; settings: 0.2 μM or 1 μM, 4 hr and 24 hr
# Procedure: as §1
# [2] = pSTAT5 negative cell lines (RPMI 8226 in FIG. 2A)
# [3] = pSTAT5 positive cell lines (TF-1 in FIG. 2B)
smiles,measurement,setting,value
"N#CC[C@H](C1CCCC1)n1cc(-c2ncnc3[nH]ccc23)cn1 [(R)-3-cyclopentyl-3-[4-(7H-pyrrolo[2,3-d]pyrimidin-4-yl)-1H-pyrazol-1-yl]propanenitrile]",modulation of 4-gene signature in tumor,UKE-1 tumor xenograft,consistent to that observed in vitro
same,pSTAT5 modulation,pSTAT5; [2],no clear effect
same,pSTAT5 modulation,pSTAT5; [3],down-modulated pSTAT5
same,changes in signature gene expression,[1]; [2],no clear effect
same,expression of the signature genes,[1]; [3],corresponding reduction of the expression of the signature genes
